This passage reports EC50 results from patent US20080045514A1 (Cytovia, Inc., priority 2006, published 2008).

pEC50: −log10 of the molar value. Where a name gives a salt, the structure may show the parent alone.

Holding throughout (type): cell-based
The subject of assay [1] is human hepatocellular carcinoma cell line SNU398. In words: Caspase cascade activation (EC50), SNU398. As to conditions: Homo sapiens, SNU-398; SNU398 cells; caspase cascade activation; read-out: caspase potency (EC50) SNU398. The procedure: (§1) Human breast cancer cell lines T-47D, human hepatocellular carcinoma cell line SNU398, human colon carcinoma cell line HCT116, human cancer cell line H1299, human Burkitt's lymphoma cell line Namalwa, human lymphoma cell line Raji, and human B cell lymphoblastoid cell line Ramos were grown according to media component mixtures designated by American Type Culture Collection+10% FCS (Invitrogen Corporation), in a 5% CO2-95% humidity incubator at 37° C. T-47D and H1299 cells were maintained at a cell density between 50 and 80% confluency at a cell density of 0.1 to 0.6×10^6 cells/mL. Cells were harvested at 600×g and resuspended at 0.65×10^6 cells/mL into appropriate media+10% FCS. An aliquot of 22.5 μL of cells was added to a well of a 384-well microtiter plate containing 2.5 μL of a 10% DMSO in RPMI-1640 media solution containing 0.16 to 100 μM of 3-(2-chlorophenyl)-6-(3,4-methylenedioxyphenyl)-7H-[1,2,4]triazolo[3,4-b][1,3,4]thiadiazine or other test compound (0.016 to 10 μM final). An aliquot of 22.5 μL of cells was added to a well of a 384-well microtiter plate containing 2.5 μL of a 10% DMSO in RPMI-1640 media solution without test compound as the control sample. The samples were mixed by agitation and then incubated at 37° C. for 48 h in a 5% CO2-95% humidity incubator. After incubation, the samples were removed from the incubator and 25 μL of a solution containing 14 μM of N—(Ac-DEVD)-N′-ethoxycarbonyl-R110 (SEQ ID No.:1) fluorogenic substrate (Cytovia, Inc.; WO99/18856), 20% sucrose (Sigma), 20 mM DTT (Sigma), 200 mM NaCl (Sigma), 40 mM Na PIPES buffer pH 7.2 (Sigma), and 500 μg/mL lysolecithin (Calbiochem) was added. The samples were mixed by agitation and incubated at room temperature. Using a fluorescent plate reader (Model SPECTRAfluor Plus, Tecan), an initial reading (T=0) was made approximately 1-2 min after addition of the substrate solution, employing excitation at 485 nm and emission at 530 nm, to determine the background fluorescence of the control sample. After the 3 h incubation, the samples were read for fluorescence as above (T=3 h). Calculation: The Relative Fluorescence Unit values (RFU) were used to calculate the sample readings as follows: RFU(T=3H)−Control RFU(T=0)=Net RFU(T=3h) The activity of caspase cascade activation was determined by the ratio of the net RFU value for 3-(2-chlorophenyl)-6-(3,4-methylenedioxyphenyl)-7H-[1,2,4]triazolo[3,4-b][1,3,4]thiadiazine (Example P) or other test compound to that of control samples. The EC50 (nM) was determined by a sigmoidal dose-response calculation (Prism 3.0, GraphPad Software Inc.).

The test system of assay [2] is human colon carcinoma cell line HCT116. In words: Caspase cascade activation (EC50), HCT116. As to conditions: Homo sapiens, HCT-116; HCT116 cells; caspase cascade activation; read-out: caspase potency (EC50) HCT116. As for the experimental part: as §1
Assay [3] relates to human B cell lymphoblastoid cell line Ramos. The experiment in a line: Caspase cascade activation (EC50), Ramos. As to conditions: Homo sapiens, RAMOS cells, read-out: caspase potency (EC50) RAMOS. As for the experimental part: as §1
The test system of assay [4] is human lymphoma cell line Raji. The experiment in a line: Caspase cascade activation (EC50), Raji. As to conditions: Homo sapiens, RAJI cells, read-out: caspase potency (EC50) RAJI. As for the experimental part:
as §1

Assay [5] deals with human breast cancer cell line T-47D. In words: Caspase cascade activation (EC50), T-47D. To be noted: Homo sapiens; T47D cells; caspase cascade activation; read-out: caspase potency (EC50) T47D. The procedure: as §1
For assay [6], the system named is human Burkitt's lymphoma cell line Namalwa. In words: Caspase cascade activation (EC50), Namalwa. To be noted: Homo sapiens, Burkitts lymphoma cell; Namalwa cells; caspase cascade activation; read-out: caspase potency (EC50) Namalwa. The procedure:
as §1

Turning to `CCOc1ccc(C2=Nn3c(nnc3-c3cccc(C)c3)SC2)cc1` [Example O2, 3-(3-Methylphenyl)-6-(4-ethoxyphenyl)-7H-[1,2,4]triazolo[3,4-b][1,3,4]thiadiazine], the pEC50 in assay [1] is 6.36; in assay [2], 6.18; in assay [3], 6.22; in assay [4], 6.19; in assay [5], 5.85; in assay [6], 6.20.

Regarding `COc1ccc(C2=Nn3c(nnc3-c3cc(Cl)c(OC)c(OC)c3)SC2)cc1` [Example 5, 3-(3-Chloro-4,5-dimethoxyphenyl)-6-(4-methoxyphenyl)-7H-[1,2,4]triazolo[3,4-b][1,3,4]thiadiazine], the pEC50 was 7.11 in assay [3], 6.88 in assay [4] and 7.15 in assay [6].

`COc1ccc(-c2nnc3n2N=C(c2ccc(N)cc2)CS3)cc1OC` [Example 29, 6-(4-Aminophenyl)-3-(3,4-dimethoxyphenyl)-7H-[1,2,4]triazolo[3,4-b][1,3,4]thiadiazine]: the pEC50 was 5.59 in assay [1], 5.28 in assay [2], 6.26 in assay [3] and 5.33 in assay [5].

Turning to `Cc1ccc(C2=Nn3c(nnc3-c3ccccc3Cl)SC2)cc1` [Example 11, 3-(2-Chlorophenyl)-6-(4-methylphenyl)-7H-[1,2,4]triazolo[3,4-b][1,3,4]thiadiazine hydrochloride], the negative logarithm of the EC50 (pEC50) in assay [3] is 7.14; in assay [4], 6.80; in assay [6] it was 7.15.

Consider `COc1ccc(-c2nnc3n2N=C(c2ccc(NC(C)=O)cc2)CS3)cc1OC` [Example 32, 6-(4-Acetamidophenyl)-3-(3,4-dimethoxyphenyl)-7H-[1,2,4]triazolo[3,4-b][1,3,4]thiadiazine], for which the pEC50 in assay [3] is 5.31; in assay [4], below 5.00; in assay [6], below 5.00.

Turning to `COc1ccccc1-c1nnc2n1N=C(c1ccc(OCCN(C)C)cc1)CS2` [Example 9, 3-(2-Methoxyphenyl)-6-(4-(2-dimethylaminoethoxy)phenyl)-7H-[1,2,4]triazolo[3,4-b][1,3,4]thiadiazine], the pEC50 in assay [3] was 5.58; in assay [4] it was 5.47; in assay [6], 5.59.

For the compound `COc1ccc(-c2nnc3n2N=C(c2ccc4[nH]c(=O)oc4c2)CS3)c(OC)c1` [Example 33, 6-(2,3-Dihydro-2-oxobenzo[d]oxazol-6-yl)-3-(2,4-dimethoxyphenyl)-7H-[1,2,4]triazolo[3,4-b][1,3,4]thiadiazine], the pEC50 in assay [3] was 5.57; in assay [4] it was 5.62; in assay [6], 5.56.

For the compound `COc1ccc(-c2nnc3n2N=C(c2ccc4c(c2)OCO4)CS3)cc1OC` [Example O1, 3-(3,4-Dimethoxyphenyl)-6-(3,4-methylenedioxyphenyl)-7H-[1,2,4]triazolo[3,4-b][1,3,4]thiadiazine], the negative logarithm of the EC50 (pEC50) is 6.30 in assay [1]; below 5.00 in assay [2]; 6.29 in assay [3]; 6.27 in assay [4]; 6.27 in assay [5].

Regarding `c1ccc(-c2nnc3n2N=C(c2ccc4c(c2)OCO4)CS3)cc1` [Example P1, 3-Phenyl-6-(3,4-methylenedioxyphenyl)-7H-[1,2,4]triazolo[3,4-b][1,3,4]thiadiazine], the negative-log EC50 (pEC50) in assay [1] was 5.58; in assay [2], below 5.00; in assay [3] it was 6.20; in assay [4], below 6.00; in assay [5], 6.17.

Regarding `COc1ccccc1-c1nnc2n1N=C(c1ccc(Cl)c(Cl)c1)CS2` [Example Q3], the pEC50 in assay [1] is below 5.00; in assay [2] it was below 5.00; in assay [5], below 5.00; in assay [6], 6.53.

`CCN(CC)S(=O)(=O)c1ccc(C2=Nn3c(nnc3-c3ccccc3C)SC2)cc1` [Example 52, 6-(4-(N,N-Diethylaminosulfonyl)phenyl)-3-(2-methylphenyl)-7H-[1,2,4]triazolo[3,4-b][1,3,4]thiadiazine]: the pEC50 in assay [1], in assay [2], in assay [5] and in assay [6] was below 5.00 throughout.

On to `COc1ccccc1-c1nnc2n1N=C(c1ccc([N+](=O)[O-])cc1)CS2` [Example X2], for which the pEC50 in assay [3] is 5.59; in assay [4], 5.31; in assay [6], 5.59.

Consider `Cc1cc(Cl)ccc1-c1nnc2n1N=C(c1ccc(C)c([N+](=O)[O-])c1)CS2` [Example 90, 3-(4-Chloro-2-methylphenyl)-6-(4-methyl-3-nitrophenyl)-7H-[1,2,4]triazolo[3,4-b][1,3,4]thiadiazine], for which the pEC50 is 6.39 in assay [1], 6.31 in assay [2], 6.04 in assay [5] and 6.52 in assay [6].

Turning to `COc1cc(OC)cc(-c2nnc3n2N=C(c2ccc4[nH]c(=O)oc4c2)CS3)c1` [Example 34, 6-(2,3-Dihydro-2-oxobenzo[d]oxazol-6-yl)-3-(3,5-dimethoxyphenyl)-7H-[1,2,4]triazolo[3,4-b][1,3,4]thiadiazine], the pEC50 was 5.31 in assay [1], 5.29 in assay [2], 5.34 in assay [5] and 5.31 in assay [6].

Take `COc1ccccc1-c1nnc2n1N=C(c1ccccc1)CS2` [Example K3]: the pEC50 in assay [1] is 5.42; in assay [2] it was 5.27; in assay [5] it was 5.44; in assay [6], 5.55.

As to `COc1ccccc1-c1nnc2n1N=C(c1ccc(OC(F)(F)F)cc1)CS2` [Example 50, 3-(2-Methoxyphenyl)-6-(4-(trifluoromethoxy)phenyl)-7H-[1,2,4]triazolo[3,4-b][1,3,4]thiadiazine], the pEC50 is 6.28 in assay [1], 6.25 in assay [2], 6.26 in assay [5] and 6.30 in assay [6].

Turning to `COc1ccccc1-c1nnc2n1N=C(c1ccc([N+](=O)[O-])c(OC)c1)CS2` [Example 45, 6-(3-Methoxy-4-nitrophenyl)-3-(2-methoxyphenyl)-7H-[1,2,4]triazolo[3,4-b][1,3,4]thiadiazine], the pEC50 in assay [1], in assay [2], in assay [5] and in assay [6] was below 5.00 throughout.

Consider `COc1ccccc1-c1nnc2n1N=C(c1ccc(NC(C)=O)c([N+](=O)[O-])c1)CS2` [Example 56, 6-(4-Acetamido-3-nitrophenyl)-3-(2-methoxyphenyl)-7H-[1,2,4]triazolo[3,4-b][1,3,4]thiadiazine], for which the negative logarithm of the EC50 (pEC50) was 6.48 in assay [1], 6.30 in assay [2], 6.32 in assay [5] and 6.57 in assay [6].

Regarding `COc1ccccc1-c1nnc2n1N=C(c1cccc(C)c1)CS2` [Example 82, 3-(2-Methoxyphenyl)-6-(3-methylphenyl)-7H-[1,2,4]triazolo[3,4-b][1,3,4]thiadiazine], the negative logarithm of the EC50 (pEC50) in assay [1] is 6.30; in assay [2], 6.43; in assay [5], 6.22; in assay [6], 6.30.

Regarding `COc1cc(C)c(Cl)cc1C1=Nn2c(nnc2-c2ccccc2OC)SC1` [Example 49, 6-(5-Chloro-2-methoxy-4-methylphenyl)-3-(2-methoxyphenyl)-7H-[1,2,4]triazolo[3,4-b][1,3,4]thiadiazine], the pEC50 in assay [1] is 5.25; in assay [2], below 5.00; in assay [5] it was below 5.00; in assay [6], 5.25.

Usually pEC50 stands for the negative decadic logarithm of the EC50, by convention in mol/L.
